Results published in US7229762B2, “Proteomic screening for redox state dependent protein—protein interactions” (Duke University Medical Center, priority 2003, dated 2007).

Legend:
Yeast (Δyhb1) = type: cell-based, Saccharomyces cerevisiae; details: growth monitored by absorbance at 600 nm
Description: The YHB1 gene was deleted from yeast strain CG-1945 and the absence of NO consumption activity was verified (Liu et al., 2000). Yeast two-hybrid screening was then performed in the CG-1945-Ayhbl host. […]
Yeast (Δyhb1) were transformed with Gal4 BD-caspase-3 plasmid (bait) and a cDNA library (Gal4 AD prey plasmids) derived from activated (NO generating) macrophages. […] DETA-NO at less than 300 μM generates NO without inhibiting yeast growth (monitored by absorbance at 600 nm). Steady state NO concentrations are maintained at ˜100 nM–1 μM range for several days as measured with an NO electrode (not shown).
(§1) To assess the possibility of NO-dependent regulation of protein-protein interactions in a cellular context, a modified yeast two-hybrid screening methodology was developed. […] It was also necessary to establish a concentration range of DETA-NO over which physiological amounts of NO could be generated in these assays without impairing yeast growth (FIG. 1A) (100 μM DETA-NO produces steady state concentrations of ˜300 nM NO in yeast culture medium, as determined using an NO electrode)

[1] = type: physicochemical
Description: (§2) Yeast (Δyhb1) were transformed with Gal4 BD-caspase-3 plasmid (bait) and a cDNA library (Gal4 AD prey plasmids) derived from activated (NO generating) macrophages. Screening was performed as described in the methods below. DETA-NO at less than 300 μM generates NO without inhibiting yeast growth (monitored by absorbance at 600 nm). Steady state NO concentrations are maintained at ˜100 nM–1 μM range for several days as measured with an NO electrode (not shown).
as §1, with “developed. The first step was to delete the yeast flavohemoglobin gene (Liu et al., 2000), which consumes NO very efficiently and thus obfuscates NO signaling.” for “developed.”
Purified caspase-3 was incubated in the presence or absence 20 μM DETA-NO for 60 min (30 nM steady state NO), followed by incubation with ASM at 37° C. for 2 hrs, and IP with caspase-3 antibody. […] S-nitrosylation of caspase-3 by NO was separately verified by photolysis-chemiluminesence (Mannick et al., 1999). The interaction of caspase-3 with ASM was measured as ASM activity in caspase-3 IP's (pH 5.0). Little or no ASM activity was present in IP's with caspase-3 antibody of either caspase-3 or ASM in isolation.
To determine the relevant target(s) of NO, ASM/caspase-3 co-precipitations were carried out following NO treatment of each partner alone. Using an ASM activity assay, the amounts of ASM that could be precipitated with a procaspase-3 antibody was assessed from co-incubates (2 hours at 37° C.) of ASM (20 pmol) and caspase-3 in limiting amounts (2.5 pmol). […]

[2] = target: T1, caspase-3 interaction with iNOS / ASM (Homo sapiens, UniProt P42574); assay: Modified yeast two-hybrid, NO-dependent growth of iNOS/caspase-3 and ASM/caspase-3 clones; type: cell-based; details: 72 hrs, triple-deficient medium
T1 construct: expressed in transfected cells; host or cells: Saccharomyces cerevisiae CG-1945 Δyhb1
T1 sequence (P42574 1-277): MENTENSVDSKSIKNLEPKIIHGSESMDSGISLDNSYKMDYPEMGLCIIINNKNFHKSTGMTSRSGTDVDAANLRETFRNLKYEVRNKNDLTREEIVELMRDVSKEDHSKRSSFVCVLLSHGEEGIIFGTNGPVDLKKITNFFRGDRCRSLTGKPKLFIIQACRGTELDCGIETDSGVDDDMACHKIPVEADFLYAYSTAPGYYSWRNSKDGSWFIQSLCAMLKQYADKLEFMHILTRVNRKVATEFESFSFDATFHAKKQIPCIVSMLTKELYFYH
Description: as §2
Auxotrophic selection was carried out on agar plates (15 cm in diameter) enriched in 50 mM phosphate buffer (pH 7.2; His-Trp-Leu (triple)-deficient buffered medium (TDBM)). […] Prey plasmids were isolated from positive yeast clones and then re-introduced into the bait strain to confirm bait-prey interactions. Method 2: After cells were seeded on 1.5% agar they were covered with 3% low melting point agar, which in turn was layered with culture medium. NO donors (e.g. DETA-NO; 300 μM final concentration) were added to the liquid layer every 24 hours. Colonies are grown for 4 days as described in ref 9. Method 3:
Auxotrophic selection was carried out in TDBM. Transformation with the cDNA library was followed by overnight growth in medium deficient in tryptophan and leucine. Transformants were then grown for 3 days in His-deficient medium supplemented with DETA-NO (typically 200 μM final concentration). […]

[3] = target: T2, caspase-3/ASM interaction in HEK-293 cells (Homo sapiens, UniProt P42574); assay: Caspase-3 immunoprecipitation, ASM blot, HEK-293 cells exposed to DETA-NO; type: cell-based; details: 200 μM DETA-NO
T2 construct: endogenous in cells; host or cells: HEK-293
T2 sequence (P42574 29-277): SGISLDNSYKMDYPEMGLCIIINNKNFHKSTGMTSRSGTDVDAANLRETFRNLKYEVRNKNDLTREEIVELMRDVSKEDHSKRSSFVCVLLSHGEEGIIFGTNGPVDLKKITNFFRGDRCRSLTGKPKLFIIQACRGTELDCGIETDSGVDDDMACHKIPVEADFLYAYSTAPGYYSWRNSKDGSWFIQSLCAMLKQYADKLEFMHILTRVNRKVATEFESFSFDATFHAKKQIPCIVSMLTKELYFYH
T2 sequence (P17405 47-631 partner): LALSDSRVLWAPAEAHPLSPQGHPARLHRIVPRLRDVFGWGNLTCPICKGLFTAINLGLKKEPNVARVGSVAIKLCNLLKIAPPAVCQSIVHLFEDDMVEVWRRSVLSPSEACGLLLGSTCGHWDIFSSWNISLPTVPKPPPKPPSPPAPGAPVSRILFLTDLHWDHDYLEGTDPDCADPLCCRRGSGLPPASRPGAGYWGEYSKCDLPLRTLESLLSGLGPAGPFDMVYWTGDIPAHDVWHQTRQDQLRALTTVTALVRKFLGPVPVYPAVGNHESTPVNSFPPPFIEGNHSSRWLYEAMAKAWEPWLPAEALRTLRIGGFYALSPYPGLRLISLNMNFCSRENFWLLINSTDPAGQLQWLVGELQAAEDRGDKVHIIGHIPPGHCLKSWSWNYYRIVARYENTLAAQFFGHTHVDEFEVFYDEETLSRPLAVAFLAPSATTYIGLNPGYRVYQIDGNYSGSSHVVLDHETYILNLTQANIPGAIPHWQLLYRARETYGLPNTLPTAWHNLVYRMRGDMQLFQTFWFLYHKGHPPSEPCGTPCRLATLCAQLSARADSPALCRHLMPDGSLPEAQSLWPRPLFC
Description: (§3) Thirty million cells were lysed by gentle homogenization in 1 ml IP buffer (10 mM NaPi, 100 mM NaCl, 1 mM EDTA, pH 7.9, with protease inhibitor cocktail). The supernatant obtained by centrifugation at 20,000 g for 10 min was used for immunoprecipitation. Caspase-3 immunoprecipitates (2.5 μg anti-caspase-3 monoclonal antibody, Transduction Laboratories) were washed, separated on 10% SDS-PAGE, and blotted with ASM antisera (Santa Cruz Biotechnology); 5% of the sample was blotted for caspase-3.
Bulotta et al., 2001; De Nadal et al., 2000). […] To define further the NO requirement for this interaction, caspase-3 was immunoprecipitated from wild-type HEK cells and from HEK cells stably transfected with nNOS (Bredt et al., 1992), in the presence and absence of the NOS inhibitor L-NMMA. Little or no ASM was pulled down in precipitates from wild-type HEK cells, whereas ASM was readily detected in the precipitates from nNOS-expressing cells (FIG. 2). Moreover, ASM/caspase-3 interactions were observed not only between the 57 kD mature form of ASM, but also with the ASM proform (75 kD) and a smaller processed form (47 kD), which may be alternatively regulated (Ferlinz et al., 1994; Hurwitz et al., 1994).

[4] = system: ASM/caspase-3 interaction in nNOS-expressing HEK cells; assay: Caspase-3 IP from nNOS-expressing HEK cells, ASM isoforms; type: cell-based, Human; details: L-NMMA 3 mM
Description: as §3
Amounts of ASM isoforms (47, 57, 75 kDa) in caspase-3 immunoprecipitates (IP) from wild type (WT) vs. nNOS-expressing HEK cells were normalized with respect to the amounts of caspase-3 in the IPs (FIG. 2, bar graphs); IPs were performed in the presence and absence of the NOS inhibitor, LNMMA (3 mM). nNOS vs. WT (single asterisk, P<0.01) and nNOS vs. nNOS+LNMMA (double asterisk, p<0.05). A and B, n=7–14; C, n=3–5.
Bulotta et al., 2001; De Nadal et al., 2000). […] To define further the NO requirement for this interaction, caspase-3 was immunoprecipitated from wild-type HEK cells and from HEK cells stably transfected with nNOS (Bredt et al., 1992), in the presence and absence of the NOS inhibitor L-NMMA. Little or no ASM was pulled down in precipitates from wild-type HEK cells, whereas ASM was readily detected in the precipitates from nNOS-expressing cells (FIG. 2). […]

[5] = target: T3, eNOS/caspase-3 interaction in eNOS-expressing HEK cells (Bos taurus, UniProt P29473); assay: Caspase-3 IP from eNOS-expressing HEK cells, amounts of eNOS; type: cell-based, Human; details: L-NMMA 3 mM with L-arginine 1 mM/Ca2+ 200 μM
T3 construct: expressed in transfected cells; host or cells: HEK-293 expressing eNOS
Description: HEK cell lysates from wild type (WT), nNOS- and eNOS-expressing cells were immunoprecipitated with caspase-3 monoclonal antibodies and blotted (IB) for nNOS, eNOS, and caspase-3, respectively. eNOS, nNOS and caspase-3 in whole cell lysates (Lysate) and in IPs from those lysates (7–20% SDS-PAGE) are shown. Data are representative of 5 similar experiments. eNOS and nNOS were not detectable in control IPs (not shown).
eNOS-expressing HEK cells were treated with L-arginine (1 mM)/Ca^2+ (200 μM) (to activate NOS) in the presence or absence of L-NMMA (3 mM) (to inhibit NOS activation). Amounts of eNOS were quantified from scanned Western blots (7–20% SDS-PAGE) and normalized with respect to amounts of caspase in the IP (bar graph), (n=3).
To probe further the physiological relevance of NO-dependent protein-protein interactions of NOS, the effects of NOS activity on binding of caspase-3 were assessed. […] Thus, NOS reversibly regulates its own binding to capase-3 through NO production.

| SMILES | DETA-NO concentration that generates NO without inhibiting yeast growth (Yeast (Δyhb1)) | half-life [1] [h] | steady state / maximum NO concentration ([1]; 20 μM DETA-NO, 60 min) [nM] | steady state concentration of NO ([1]; 100 μM DETA-NO, yeast culture medium, NO electrode) [nM] | concentration that optimally induced in yeast the interactions of caspase-3 with ASM and iNOS [2] [µM] | co-precipitation of ASM with caspase-3 [3] | effect on interaction between ASM isoforms and caspase-3 [4] | effect on eNOS interaction with caspase-3 after NOS activation [5] |
| --- | --- | --- | --- | --- | --- | --- | --- | --- |
| NCCN(CCN)/[N+]([O-])=N/O [DETA-NO, diethylenetriamine-NO] | less than 300 μM | ~18 | 30 | ~300 | 200 | immunoprecipitation of caspase-3 brought down the 57 kD active form of ASM | – | – |
| CNC(=N)NCCC[C@H](N)C(=O)O [L-NMMA] | – | – | – | – | – | – | significantly reduced the interaction | almost completely reversed this effect |
